# From patent US20210169892A1, “MODULATORS OF THE INTEGRATED STRESS PATHWAY” (Calico Life Sciences LLC, priority 2017, published 2021)
# pEC50: −log10 of the molar value.
# System: HEK293T cells carrying the ATF4 luciferase reporter
# Assay: ATF4-Luc assay (in vitro model of vanishing white matter disease)
# Format: cell-based
# Settings: Homo sapiens, HEK-293T; HEK293T cells with ATF4 luciferase reporter, 1 μg/mL tunicamycin, 7 hours, One Glo luminescence
# Procedure: In order to test exemplary compounds of the invention in a cellular context, a stable VWMD cell line was first constructed. The ATF4 reporter was prepared by fusing the human full-length ATF4 5′-UTR (NCBI Accession No. BC022088.2) in front of the firefly luciferase (FLuc) coding sequence lacking the initiator methionine as described in Sidrauski et al (eLife 2013). The construct was used to produce recombinant retroviruses using standard methods and the resulting viral supernatant was used to transduce HEK293T cells, which were then subsequently selected with puromycin to generate a stable cell line.
# HEK293T cells carrying the ATF4 luciferase reporter were plated on polylysine coated 384-well plates (Greiner Bio-one) at 30,000 cells per well. Cells were treated the next day with 1 μg/mL tunicamycin and 200 nM of a compound of Formula (I) for 7 hours. Luminescence was measured using One Glo (Promega) as specified by the manufacturer. Cells were maintained in DMEM with L-glutamine supplemented with 10% heat-inactivated FBS (Gibco) and Antibiotic-Antimycotic solution (Gibco).
# Table 2 below summarizes the EC50 data obtained using the ATF4-Luc assay for exemplary compounds of the invention.
row,Structure (SMILES),pEC50
1,"O=C(COc1ccc(Cl)c(F)c1)NC12CC(NC(=O)[C@@H]3COc4ccccc4O3)(C1)C2 [Compound 125, (2S)—N-{3-[2-(4-chloro-3-fluorophenoxy)acetamido]bicyclo[1.1.1]pentan-1-yl}-2,3-dihydro-1,4-benzodioxine-2-carboxamide]",6.60 to 7.30
2,"O=C(COc1ccc(Cl)c(F)c1)NC12CCC(NC(=O)[C@H]3COc4ccccc4O3)(CC1)[C@@H](O)C2 [Compound 126, (2R)—N-{(2S)-4-[2-(4-chloro-3-fluorophenoxy)acetamido]-2-hydroxybicyclo[2.2.2]octan-1-yl}-2,3-dihydro-1,4-benzodioxine-2-carboxamide]",> 8.00
3,"O=C(COc1ccc(Cl)c(F)c1)NC12CCC(NC(=O)[C@@H]3COc4ccccc4O3)(CC1)[C@@H](O)C2 [Compound 127, (2S)—N-{(2S)-4-[2-(4-chloro-3-fluorophenoxy)acetamido]-2-hydroxybicyclo[2.2.2]octan-1-yl}-2,3-dihydro-1,4-benzodioxine-2-carboxamide]",7.30 to 8.00
4,"O=C(COc1ccc(Cl)c(F)c1)NC12CC(NC(=O)[C@H]3Cc4ccccc4N3)(C1)C2 [Compound 128, (2R)—N-{3-[2-(4-chloro-3-fluorophenoxy)acetamido]bicyclo[1.1.1]pentan-1-yl}-2,3-dihydro-1H-indole-2-carboxamide]",6.60 to 7.30
5,"O=C(COc1ccc(Cl)c(F)c1)NC12CCC(NC(=O)C3Cc4ccccc4O3)(CC1)C(O)C2 (stereo not drawn) [Compound 129, N-{4-[2-(4-chloro-3-fluorophenoxy)acetamido]-2-hydroxybicyclo[2.2.2]octan-1-yl}-2,3-dihydro-1-benzofuran-2-carboxamide]",6.30 to 6.60
6,"C[C@@]1(C(=O)NC23CC(NC(=O)COc4ccc(Cl)c(F)c4)(C2)C3)COc2cc3c(cc21)OC(F)(F)O3 [Compound 130, (7S)—N-{3-[2-(4-chloro-3-fluorophenoxy)acetamido]bicyclo[1.1.1]pentan-1-yl}-2,2-difluoro-7-methyl-6,7-dihydro-2H-furo[2,3-f][1,3]benzodioxole-7-carboxamide]",< 5.70
7,"C[C@]1(C(=O)NC23CC(NC(=O)COc4ccc(Cl)c(F)c4)(C2)C3)COc2cc3c(cc21)OC(F)(F)O3 [Compound 131, (7R)—N-{3-[2-(4-chloro-3-fluorophenoxy)acetamido]bicyclo[1.1.1]pentan-1-yl}-2,2-difluoro-7-methyl-6,7-dihydro-2H-furo[2,3-f][1,3]benzodioxole-7-carboxamide]",5.70 to 6.30
8,"O=C(NC12CC(NC(=O)C3COc4cc(Cl)c(Cl)cc4O3)(C1)C2)c1ccc(OC(F)(F)F)cn1 (stereo not drawn) [Compound 132, N-{3-[(6,7-dichloro-2,3-dihydro-1,4-benzodioxine-2-carbonyl)amino]bicyclo[1.1.1]pentan-1-yl}-5-(trifluoromethoxy)pyridine-2-carboxamide]",6.60 to 7.30
9,"O=C(NC12CC(NC(=O)C3COc4cc(Cl)c(Cl)cc4O3)(C1)C2)c1cnc(C(F)F)cn1 (stereo not drawn) [Compound 133, N-{3-[(6,7-dichloro-2,3-dihydro-1,4-benzodioxine-2-carbonyl)amino]bicyclo[1.1.1]pentan-1-yl}-5-(difluoromethyl)pyrazine-2-carboxamide]",7.30 to 8.00
10,"O=C(COc1ccc(Cl)c(F)c1)NC12CC(NC(=O)C3CN(CCO)c4cc(Cl)ccc4O3)(C1)C2 (stereo not drawn) [Compound 135, 6-chloro-N-{3-[2-(4-chloro-3-fluorophenoxy)acetamido]bicyclo[1.1.1]pentan-1-yl}-4-(2-hydroxyethyl)-3,4-dihydro-2H-1,4-benzoxazine-2-carboxamide]",> 8.00
11,"O=C(COc1ccc(Cl)c(F)c1)NC12CC(NC(=O)C3CN(C(=O)CO)c4cc(Cl)ccc4O3)(C1)C2 (stereo not drawn) [Compound 136, 6-chloro-N-{3-[2-(4-chloro-3-fluorophenoxy)acetamido]bicyclo[1.1.1]pentan-1-yl}-4-(hydroxyacetyl)-3,4-dihydro-2H-1,4-benzoxazine-2-carboxamide]",> 8.00
12,"Cc1ncc(S(=O)(=O)N2CC(C(=O)NC34CC(NC(=O)COc5ccc(Cl)c(F)c5)(C3)C4)Oc3ccc(Cl)cc32)n1C (stereo not drawn) [Compound 137, 6-chloro-N-{3-[2-(4-chloro-3-fluorophenoxy)acetamido]bicyclo[1.1.1]pentan-1-yl}-4-(1,2-dimethyl-1H-imidazole-5-sulfonyl)-3,4-dihydro-2H-1,4-benzoxazine-2-carboxamide]",< 5.70
13,"O=C(COc1ccc(Cl)c(F)c1)NC12CC(NC(=O)C3CN(C(=O)[C@H]4C[C@@H]4F)c4cc(Cl)ccc4O3)(C1)C2 (stereo partly drawn) [Compound 138, 6-chloro-N-{3-[2-(4-chloro-3-fluorophenoxy)acetamido]bicyclo[1.1.1]pentan-1-yl}-4-[(1R,2S)-2-fluorocyclopropane-1-carbonyl]-3,4-dihydro-2H-1,4-benzoxazine-2-carboxamide]",6.30 to 6.60
14,"CCOCCS(=O)(=O)N1CC(C(=O)NC23CC(NC(=O)COc4ccc(Cl)c(F)c4)(C2)C3)Oc2ccc(Cl)cc21 (stereo not drawn) [Compound 139, 6-chloro-N-{3-[2-(4-chloro-3-fluorophenoxy)acetamido]bicyclo[1.1.1]pentan-1-yl}-4-(2-ethoxyethanesulfonyl)-3,4-dihydro-2H-1,4-benzoxazine-2-carboxamide]",6.60 to 7.30
15,"O=C(COc1ccc(Cl)c(F)c1)NC12CC(NC(=O)C3CN(C(=O)C4(F)CC4)c4cc(Cl)ccc4O3)(C1)C2 (stereo not drawn) [Compound 140, 6-chloro-N-{3-[2-(4-chloro-3-fluorophenoxy)acetamido]bicyclo[1.1.1]pentan-1-yl}-4-(1-fluorocyclopropane-1-carbonyl)-3,4-dihydro-2H-1,4-benzoxazine-2-carboxamide]",6.60 to 7.30
16,"O=C(COc1ccc(Cl)c(F)c1)NC12CC(NC(=O)C3CN(C(=O)CC(F)(F)C(F)(F)F)c4cc(Cl)ccc4O3)(C1)C2 (stereo not drawn) [Compound 141, 6-chloro-N-{3-[2-(4-chloro-3-fluorophenoxy)acetamido]bicyclo[1.1.1]pentan-1-yl}-4-(3,3,4,4,4-pentafluorobutanoyl)-3,4-dihydro-2H-1,4-benzoxazine-2-carboxamide]",7.30 to 8.00
17,"O=C(COc1ccc(Cl)c(F)c1)NC12CC(NC(=O)C3CN(C(=O)c4ccc(OC(F)(F)F)cc4)c4cc(Cl)ccc4O3)(C1)C2 (stereo not drawn) [Compound 143, 6-chloro-N-{3-[2-(4-chloro-3-fluorophenoxy)acetamido]bicyclo[1.1.1]pentan-1-yl}-4-[4-(trifluoromethoxy)benzoyl]-3,4-dihydro-2H-1,4-benzoxazine-2-carboxamide]",5.70 to 6.30
18,"Cc1ccc(C(=O)N2CC(C(=O)NC34CC(NC(=O)COc5ccc(Cl)c(F)c5)(C3)C4)Oc3ccc(Cl)cc32)o1 (stereo not drawn) [Compound 145, 6-chloro-N-{3-[2-(4-chloro-3-fluorophenoxy)acetamido]bicyclo[1.1.1]pentan-1-yl}-4-(5-methylfuran-2-carbonyl)-3,4-dihydro-2H-1,4-benzoxazine-2-carboxamide]",6.60 to 7.30
19,"COc1cccc(C(=O)N2CC(C(=O)NC34CC(NC(=O)COc5ccc(Cl)c(F)c5)(C3)C4)Oc3ccc(Cl)cc32)c1 (stereo not drawn) [Compound 146, 6-chloro-N-{3-[2-(4-chloro-3-fluorophenoxy)acetamido]bicyclo[1.1.1]pentan-1-yl}-4-(3-methoxybenzoyl)-3,4-dihydro-2H-1,4-benzoxazine-2-carboxamide]",5.70 to 6.30
20,"O=C(COc1ccc(Cl)c(F)c1)NC12CC(NC(=O)C3CN(C(=O)c4ccc(S(=O)(=O)F)cc4)c4cc(Cl)ccc4O3)(C1)C2 (stereo not drawn) [Compound 147, 4-[6-chloro-2-({3-[2-(4-chloro-3-fluorophenoxy)acetamido]bicyclo[1.1.1]pentan-1-yl}carbamoyl)-2,3-dihydro-4H-1,4-benzoxazine-4-carbonyl]benzene-1-sulfonyl fluoride]",5.70 to 6.30
21,"O=C(COc1ccc(Cl)c(F)c1)NC12CC(NC(=O)C3CN(C(=O)CCC(F)(F)F)c4cc(Cl)ccc4O3)(C1)C2 (stereo not drawn) [Compound 148, 6-chloro-N-{3-[2-(4-chloro-3-fluorophenoxy)acetamido]bicyclo[1.1.1]pentan-1-yl}-4-(4,4,4-trifluorobutanoyl)-3,4-dihydro-2H-1,4-benzoxazine-2-carboxamide]",6.60 to 7.30
22,"O=C(COc1ccc(Cl)c(F)c1)NC12CC(NC(=O)C3CN(C(=O)C4CC4)c4cc(Cl)ccc4O3)(C1)C2 (stereo not drawn) [Compound 149, 6-chloro-N-{3-[2-(4-chloro-3-fluorophenoxy)acetamido]bicyclo[1.1.1]pentan-1-yl}-4-(cyclopropanecarbonyl)-3,4-dihydro-2H-1,4-benzoxazine-2-carboxamide]",6.60 to 7.30
23,"COc1ccc(C(=O)N2CC(C(=O)NC34CC(NC(=O)COc5ccc(Cl)c(F)c5)(C3)C4)Oc3ccc(Cl)cc32)cc1 (stereo not drawn) [Compound 150, 6-chloro-N-{3-[2-(4-chloro-3-fluorophenoxy)acetamido]bicyclo[1.1.1]pentan-1-yl}-4-(4-methoxybenzoyl)-3,4-dihydro-2H-1,4-benzoxazine-2-carboxamide]",6.30 to 6.60
24,"O=C(COc1ccc(Cl)c(F)c1)NC12CC(NC(=O)C3CN(C(=O)C4CCOCC4)c4cc(Cl)ccc4O3)(C1)C2 (stereo not drawn) [Compound 151, 6-chloro-N-{3-[2-(4-chloro-3-fluorophenoxy)acetamido]bicyclo[1.1.1]pentan-1-yl}-4-(oxane-4-carbonyl)-3,4-dihydro-2H-1,4-benzoxazine-2-carboxamide]",5.70 to 6.30
